The C3SDB collision cross section collection

details: [M+H]+; instrument: DT; stepped-field

collision cross section (N2) [Å²]	SMILES
258.4	CC(C)[C@H](NC(=O)[C@@H](N)CO)C(=O)N[C@@H](Cc1ccc(O)cc1)C(=O)N[C@@H](CC(=O)O)C(=O)N[C@@H](CO)C(=O)N[C@@H](CCCNC(=N)N)C(=O)O [SVYDSR]
232.5	CC(C)C[C@H](NC(=O)[C@H](CO)NC(=O)[C@H](C)NC(=O)[C@@H](N)C(C)C)C(=O)N[C@@H](CCCNC(=N)N)C(=O)O [VASLR]
285.7	CC(C)C[C@H](NC(=O)[C@H](CC(=O)O)NC(=O)[C@@H](NC(=O)[C@H](CC(C)C)NC(=O)[C@@H](N)C(C)C)C(C)C)C(=O)N[C@@H](CCC(=O)O)C(=O)N[C@@H](CCCNC(=N)N)C(=O)O [VLVDLER]
215.4	CCC(C)C(NC(=O)C(N)Cc1c[nH]c2ccccc12)C(=O)NC(CCCN=C(N)N)C(=O)O (centres undefined) [WIR]

More lines, now with the values behind:

SMILES	collision cross section (N2) [Å²]
CCC(C)[C@H](NC(=O)[C@@H](N)CCC(N)=O)C(=O)N[C@@H](CO)C(=O)N[C@H](C(=O)N[C@@H](CCCNC(=N)N)C(=O)O)C(C)C (some centres undefined) [QISVR]	241.4
CCC(C)[C@H](NC(=O)[C@H](CO)NC(=O)[C@@H](NC(=O)[C@@H](N)CO)C(C)CC)C(=O)N[C@H](C(=O)NCC(=O)N[C@@H](CO)C(=O)N[C@@H](Cc1ccc(O)cc1)C(=O)N[C@H](C(=O)NCC(=O)N[C@@H](CC(N)=O)C(=O)N[C@@H](CCCNC(=N)N)C(=O)O)C(C)C)C(C)C (some centres undefined) [SISIVGSYVGNR]	349.1
CC(C)C[C@H](NC(=O)[C@H](CC(=O)O)NC(=O)[C@@H](N)Cc1ccc(O)cc1)C(=O)N[C@@H](CC(=O)O)C(=O)N[C@@H](Cc1ccccc1)C(=O)N[C@@H](CCCCN)C(=O)O [YDLDFK]	272.4

same assay, conditions: [M+K]+; instrument: DT; stepped-field

collision cross section (N2) [Å²]	SMILES
306.3	CCCCCCCC=CCC=CCC=CCC=CCC=CCC(=O)OC[C@H](COP(=O)(O)OC[C@H](N)C(=O)O)OC(=O)CC=CCC=CCC=CCC=CCC=CCCCCCCC [PS(46:10)]
313.6	CCCCCC=CCC=CCC=CCC=CCC=CCC=CCC(=O)OC[C@H](COP(=O)(O)OC[C@H](N)C(=O)O)OC(=O)CC=CCC=CCC=CCC=CCC=CCC=CCCCCC [PS(48:12)]
311	CCC=CCC=CCC=CCC=CCC=CCC=CCC=CCC(=O)OC[C@H](COP(=O)(O)OC[C@H](N)C(=O)O)OC(=O)CC=CCC=CCC=CCC=CCC=CCC=CCC=CCC [PS(48:14)]

same assay, conditions: [M+Na]+; instrument: DT; stepped-field

collision cross section (N2) [Å²]	SMILES
303.3	CC/C=C\C/C=C\C/C=C\C/C=C\C/C=C\C/C=C\CCC(=O)O[C@H](COC(=O)CCCCCCCCCCCCCCCCCC)COP(=O)(O)OC[C@H](N)C(=O)O [PS(41:6)]
307	CCCCC/C=C\C/C=C\C/C=C\C/C=C\CCCCCC(=O)O[C@H](COC(=O)CCCCCCCCC/C=C\CCCCCCCC)COP(=O)(O)OC[C@H](N)C(=O)O [PS(42:5)]
302	CC/C=C\C/C=C\C/C=C\C/C=C\C/C=C\C/C=C\CCC(=O)O[C@H](COC(=O)CCCCCC/C=C\C/C=C\C/C=C\CCCCC)COP(=O)(O)OC[C@H](N)C(=O)O [PS(42:9)]
309.2	CCCCCCCC=CCC=CCC=CCC=CCC=CCC(=O)OC[C@H](COP(=O)(O)OC[C@H](N)C(=O)O)OC(=O)CC=CCC=CCC=CCC=CCC=CCCCCCCC [PS(46:10)]
309.5	CCCCC=CCC=CCC=CCC=CCC=CCC=CCC(=O)OC[C@H](COP(=O)(O)OC[C@H](N)C(=O)O)OC(=O)CC=CCC=CCC=CCC=CCC=CCC=CCCCC [PS(46:12)]
312	CCC=CCC=CCC=CCC=CCC=CCC=CCC=CCC(=O)OC[C@H](COP(=O)(O)OC[C@H](N)C(=O)O)OC(=O)CC=CCC=CCC=CCC=CCC=CCC=CCC=CCC [PS(48:14)]
313.5	CCCCCCCCCCCCC=CC[C@@H](O)[C@H](COP(=O)([O-])OCC[N+](C)(C)C)NC(=O)CC=CCCCCCCCCCCCCCCCCCCCCCC [SM(44:2)]

same assay, conditions: [M]+; instrument: DT; stepped-field

collision cross section (N2) [Å²]	SMILES
236.4	CCCCCCC[N+](CCCCCCC)(CCCCCCC)CCCCCCC [TAA7]
379	CCCCCCCCCCCCCCCCCC[N+](CCCCCCCCCCCCCCCCCC)(CCCCCCCCCCCCCCCCCC)CCCCCCCCCCCCCCCCCC [TAA18]
